Test results published in patent US20170081347A1, “FUNCTIONALIZED AZABORINE COMPOUNDS AND AZABORINE-CONTAINING BIARYLCARBOXAMIDES, AND COMPOSITIONS AND METHODS THEREOF” (The Trustees of Boston College, priority 2014, published 2017).
Values after ≈ are worked out from the molar mass of the structure shown. Where two headings read alike, the source gives them in different places.

Key:
[1] = Solubility pH = 6.8; format: physicochemical; settings: aqueous buffer
[2] = Solubility FASSIF (fasted state simulated intestinal fluid); format: physicochemical
[3] = target: CYP3A4 (Homo sapiens, UniProt P08684); test: CYP3A4 (Cytochrome P450 3A4); format: in vitro ADME
Sequence of CYP3A4 (P08684 whole entry): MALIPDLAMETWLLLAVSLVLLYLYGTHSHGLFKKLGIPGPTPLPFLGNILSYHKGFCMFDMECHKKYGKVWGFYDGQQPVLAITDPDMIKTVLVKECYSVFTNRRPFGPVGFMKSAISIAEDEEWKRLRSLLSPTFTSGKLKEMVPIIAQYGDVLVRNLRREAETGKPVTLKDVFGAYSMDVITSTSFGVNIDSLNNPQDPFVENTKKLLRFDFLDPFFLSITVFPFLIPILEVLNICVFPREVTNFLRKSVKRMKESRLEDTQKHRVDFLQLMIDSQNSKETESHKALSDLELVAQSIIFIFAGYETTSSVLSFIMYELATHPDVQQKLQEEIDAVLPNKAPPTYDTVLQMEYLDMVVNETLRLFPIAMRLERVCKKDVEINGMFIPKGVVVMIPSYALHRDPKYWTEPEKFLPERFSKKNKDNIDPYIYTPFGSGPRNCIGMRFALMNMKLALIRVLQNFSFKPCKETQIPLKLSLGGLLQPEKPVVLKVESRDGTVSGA

[4] = target: hERG (Homo sapiens, UniProt Q12809); test: hERG
Sequence of hERG (Q12809 whole entry): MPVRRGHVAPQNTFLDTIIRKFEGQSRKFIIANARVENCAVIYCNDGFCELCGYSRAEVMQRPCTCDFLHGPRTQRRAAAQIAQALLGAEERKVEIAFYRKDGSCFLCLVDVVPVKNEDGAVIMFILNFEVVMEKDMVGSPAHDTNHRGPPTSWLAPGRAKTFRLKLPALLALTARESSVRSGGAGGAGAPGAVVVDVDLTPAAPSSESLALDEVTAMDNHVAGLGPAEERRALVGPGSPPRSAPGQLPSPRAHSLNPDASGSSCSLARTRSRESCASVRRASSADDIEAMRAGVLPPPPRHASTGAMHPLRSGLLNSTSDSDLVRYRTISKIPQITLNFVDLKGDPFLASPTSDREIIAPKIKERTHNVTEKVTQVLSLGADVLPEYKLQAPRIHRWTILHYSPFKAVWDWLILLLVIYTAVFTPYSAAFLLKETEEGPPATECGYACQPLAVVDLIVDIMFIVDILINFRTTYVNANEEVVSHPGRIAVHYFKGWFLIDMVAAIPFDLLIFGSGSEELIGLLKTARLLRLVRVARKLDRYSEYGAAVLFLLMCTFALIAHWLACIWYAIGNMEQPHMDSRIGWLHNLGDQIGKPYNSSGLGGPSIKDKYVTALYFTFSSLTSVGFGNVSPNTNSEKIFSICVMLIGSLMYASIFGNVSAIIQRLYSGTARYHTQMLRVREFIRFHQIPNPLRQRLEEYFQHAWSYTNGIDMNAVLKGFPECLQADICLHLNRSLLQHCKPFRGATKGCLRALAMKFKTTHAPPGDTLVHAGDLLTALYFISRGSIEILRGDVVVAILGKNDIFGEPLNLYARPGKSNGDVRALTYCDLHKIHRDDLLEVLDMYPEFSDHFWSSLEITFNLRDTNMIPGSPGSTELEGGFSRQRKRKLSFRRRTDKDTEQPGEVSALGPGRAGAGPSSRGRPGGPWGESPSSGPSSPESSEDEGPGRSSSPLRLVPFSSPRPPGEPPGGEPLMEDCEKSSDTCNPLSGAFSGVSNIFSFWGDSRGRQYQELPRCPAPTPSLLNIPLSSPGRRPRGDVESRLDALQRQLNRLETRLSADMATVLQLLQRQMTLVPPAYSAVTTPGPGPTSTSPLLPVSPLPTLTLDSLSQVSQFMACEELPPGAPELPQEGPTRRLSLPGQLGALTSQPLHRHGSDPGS

[5] = LogD; format: physicochemical
[6] = PAMPA (parellel artificial membrane permeability assay); format: in vitro ADME; design: unit not given here
[7] = RLM Cl; format: in vitro ADME
[8] = target: T1, PPARα (Homo sapiens, UniProt Q07869); test: PPARα inverse agonist; format: biochemical
T1 sequence (Q07869 1-468): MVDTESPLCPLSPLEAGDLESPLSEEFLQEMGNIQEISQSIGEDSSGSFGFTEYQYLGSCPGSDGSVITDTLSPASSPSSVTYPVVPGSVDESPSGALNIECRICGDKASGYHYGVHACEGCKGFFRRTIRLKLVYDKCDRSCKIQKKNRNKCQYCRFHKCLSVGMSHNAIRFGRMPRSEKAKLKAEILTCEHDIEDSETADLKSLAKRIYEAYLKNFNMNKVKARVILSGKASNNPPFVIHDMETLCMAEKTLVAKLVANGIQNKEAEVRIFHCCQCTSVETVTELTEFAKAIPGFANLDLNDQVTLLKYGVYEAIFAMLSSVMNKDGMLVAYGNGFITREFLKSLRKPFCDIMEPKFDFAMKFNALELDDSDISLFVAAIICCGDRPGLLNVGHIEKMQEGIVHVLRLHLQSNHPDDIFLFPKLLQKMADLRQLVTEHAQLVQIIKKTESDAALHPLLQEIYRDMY

[9] = target: T2, PPARγ (Homo sapiens, UniProt P37231); test: PPARγ antagonist; format: biochemical
T2 sequence (P37231 1-505): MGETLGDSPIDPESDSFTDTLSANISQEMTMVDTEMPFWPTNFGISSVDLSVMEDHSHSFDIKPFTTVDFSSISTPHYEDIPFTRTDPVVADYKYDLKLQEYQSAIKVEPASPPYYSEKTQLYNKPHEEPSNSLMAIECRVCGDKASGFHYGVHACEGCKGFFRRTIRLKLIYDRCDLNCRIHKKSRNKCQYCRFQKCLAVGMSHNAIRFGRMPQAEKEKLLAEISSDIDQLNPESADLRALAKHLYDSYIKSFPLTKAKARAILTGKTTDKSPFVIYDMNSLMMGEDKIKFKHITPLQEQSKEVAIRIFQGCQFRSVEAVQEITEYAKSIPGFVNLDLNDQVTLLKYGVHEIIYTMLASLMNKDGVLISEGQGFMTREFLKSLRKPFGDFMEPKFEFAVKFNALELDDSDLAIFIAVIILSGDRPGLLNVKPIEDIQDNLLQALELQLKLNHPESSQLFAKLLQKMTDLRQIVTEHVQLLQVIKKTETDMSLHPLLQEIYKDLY

[10] = target: T3, PPARδ (Homo sapiens, UniProt Q03181); test: PPARδ antagonist; format: biochemical
T3 sequence (Q03181 1-441): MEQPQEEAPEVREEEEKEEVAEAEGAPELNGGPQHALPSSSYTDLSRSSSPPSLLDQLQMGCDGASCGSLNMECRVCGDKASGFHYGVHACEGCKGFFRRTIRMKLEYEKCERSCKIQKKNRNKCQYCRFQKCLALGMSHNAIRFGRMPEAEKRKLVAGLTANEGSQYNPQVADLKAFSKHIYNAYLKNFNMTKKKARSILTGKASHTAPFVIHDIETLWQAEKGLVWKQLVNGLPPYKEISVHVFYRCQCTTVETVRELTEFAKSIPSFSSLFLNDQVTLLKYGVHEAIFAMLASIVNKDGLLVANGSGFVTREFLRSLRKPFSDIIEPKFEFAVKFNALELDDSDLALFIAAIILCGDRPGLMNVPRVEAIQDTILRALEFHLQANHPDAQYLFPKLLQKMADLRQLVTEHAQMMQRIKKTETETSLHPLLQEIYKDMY

[11] = target: Opioid δ (Homo sapiens, UniProt P41143); test: Opioid δ antagonist; format: biochemical
Sequence of Opioid δ (P41143 whole entry): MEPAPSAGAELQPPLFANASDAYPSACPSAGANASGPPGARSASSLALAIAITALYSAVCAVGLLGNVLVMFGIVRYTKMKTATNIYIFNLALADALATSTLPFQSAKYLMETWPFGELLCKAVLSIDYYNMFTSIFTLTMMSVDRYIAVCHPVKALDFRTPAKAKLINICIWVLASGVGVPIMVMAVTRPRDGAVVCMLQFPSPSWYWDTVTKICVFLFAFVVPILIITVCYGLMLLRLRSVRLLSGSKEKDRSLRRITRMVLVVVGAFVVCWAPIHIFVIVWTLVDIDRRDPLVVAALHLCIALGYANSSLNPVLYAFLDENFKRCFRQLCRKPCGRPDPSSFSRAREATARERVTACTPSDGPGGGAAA
Experimental: (§1) Bioactivity and ADME testing were performed for certain compounds of the invention.

[12] = target: Opioid μ (Homo sapiens, UniProt P35372); test: Opioid μ antagonist; format: biochemical
Sequence of Opioid μ (P35372 whole entry): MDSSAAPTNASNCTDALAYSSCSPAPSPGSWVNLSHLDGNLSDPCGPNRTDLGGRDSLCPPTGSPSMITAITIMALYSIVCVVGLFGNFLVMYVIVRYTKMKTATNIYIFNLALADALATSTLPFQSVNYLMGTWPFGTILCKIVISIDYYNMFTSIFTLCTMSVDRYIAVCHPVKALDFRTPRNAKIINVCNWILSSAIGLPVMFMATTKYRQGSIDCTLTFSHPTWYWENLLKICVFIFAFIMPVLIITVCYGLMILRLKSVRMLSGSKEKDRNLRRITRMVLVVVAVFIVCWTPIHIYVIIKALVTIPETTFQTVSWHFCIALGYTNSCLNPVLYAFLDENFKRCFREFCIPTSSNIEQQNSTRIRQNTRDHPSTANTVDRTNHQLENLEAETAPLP
Experimental: as §1

[13] = target: CDK2 (Homo sapiens, UniProt P24941); test: CDK2 inhibitor; format: biochemical
[14] = target: Dopamine D3 (Homo sapiens, UniProt P35462); test: Dopamine D3 antagonist; format: biochemical
Sequence of Dopamine D3 (P35462 whole entry): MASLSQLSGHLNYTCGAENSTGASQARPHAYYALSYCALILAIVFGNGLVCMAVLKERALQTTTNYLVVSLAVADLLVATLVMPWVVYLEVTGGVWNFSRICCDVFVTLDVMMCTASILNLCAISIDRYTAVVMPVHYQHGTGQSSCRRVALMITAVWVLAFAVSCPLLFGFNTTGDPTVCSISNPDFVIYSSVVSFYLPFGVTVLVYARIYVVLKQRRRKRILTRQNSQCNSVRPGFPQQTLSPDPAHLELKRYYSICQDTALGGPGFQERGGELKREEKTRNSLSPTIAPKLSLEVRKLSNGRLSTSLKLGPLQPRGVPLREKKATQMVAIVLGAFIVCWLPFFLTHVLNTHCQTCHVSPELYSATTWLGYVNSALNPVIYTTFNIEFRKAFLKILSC
Experimental: as §1

[15] = target: Dopamine D2 (Homo sapiens, UniProt P14416); test: Dopamine D2 antagonist; format: biochemical
Sequence of Dopamine D2 (P14416 whole entry): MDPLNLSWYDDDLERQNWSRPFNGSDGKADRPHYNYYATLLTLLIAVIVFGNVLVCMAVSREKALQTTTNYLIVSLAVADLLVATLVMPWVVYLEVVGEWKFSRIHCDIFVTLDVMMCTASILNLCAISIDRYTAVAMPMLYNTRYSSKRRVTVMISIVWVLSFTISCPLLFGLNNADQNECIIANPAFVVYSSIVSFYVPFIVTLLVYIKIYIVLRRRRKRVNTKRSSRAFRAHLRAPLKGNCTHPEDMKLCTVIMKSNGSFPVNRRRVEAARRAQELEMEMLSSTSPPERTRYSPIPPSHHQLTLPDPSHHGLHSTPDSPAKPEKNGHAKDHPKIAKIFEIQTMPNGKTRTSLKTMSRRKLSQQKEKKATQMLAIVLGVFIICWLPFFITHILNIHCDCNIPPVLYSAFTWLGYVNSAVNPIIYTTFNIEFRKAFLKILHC

Compound	solubility [1] [µM]	solubility [2] [µM]	IC50 [3] [µM]	logD [5]	PAMPA [6]	RLM Cl [7] [L/h/kg]	IC50 [8] [µM]	IC50 [9] [µM]	IC50 ([10]; antagonist, read-out: PPARδ antagonist IC50) [µM]	IC50 [11] [µM]	IC50 [12] [µM]	IC50 [13] [µM]	IC50 [10] [µM]	IC50 [14] [µM]	IC50 [15] [µM]	IC50 [4] [µM]
O=C(NCCS(=O)(=O)c1ccc(C(F)(F)F)cn1)c1ccc(-c2ccccc2)cc1	< 4	< 4	> 20	3.5	−4.2	2.32		1.4					3.9			> 20
O=C(NC1CCN(Cc2ccccc2)C1)c1ccc(B2C=CC=CN2)cc1 (stereo not shown)	> 30	597 (≈ 213 µg/mL)	> 20	4.1	−4.8	2.91										1.4
O=C(O)Cc1ccc(-c2ccccc2)cc1	890 (≈ 189 µg/mL)	840 (≈ 178 µg/mL)														
CN(CCc1c[nH]c2ccccc12)C(=O)c1ccc(-c2ccccc2)cc1	< 5	< 5	> 20	> 5	−4.5	2.92										> 30
CC(C)[C@@H](CN1CCN(c2cccc(O)c2)[C@@H](C)C1)NC(=O)c1ccc(-c2ccccc2)cc1	50 (≈ 22.9 µg/mL)	349 (≈ 160 µg/mL)	> 20	5.2	−5.7	>3.18				> 30	7.4					> 30
O=C(NC1CCN(Cc2ccccc2)C1)c1ccc(-c2ccccc2)cc1 (stereo not shown)	13 (≈ 4.63 µg/mL)	27 (≈ 9.62 µg/mL)	> 20	4.4	−3.6	2.62										0.32
COc1ccc2[nH]cc(CCNC(=O)c3ccc(-c4ccccc4)cc3)c2c1			> 20	> 5	−4.1	2.78										11
COc1ccccc1N1CCN(CCCCNC(=O)c2ccc(-c3ccccc3)cc2)CC1	< 5	21 (≈ 9.32 µg/mL)	> 20	4.2	−3.9	3.08								0.003		0.042
Cl.O=C(Cc1ccc(-c2ccccc2)cc1)Nc1cc(C2CC2)n[nH]1	< 4	13	> 20	4.2	−3.9	3										> 30

Continued, in another order:

solubility [1] [µM]	solubility [2] [µM]	IC50 [3] [µM]	logD [5]	PAMPA [6]	RLM Cl [7] [L/h/kg]	IC50 [8] [µM]	IC50 [9] [µM]	IC50 ([10]; antagonist, read-out: PPARδ antagonist IC50) [µM]	IC50 [11] [µM]	IC50 [12] [µM]	IC50 [13] [µM]	IC50 [10] [µM]	IC50 [14] [µM]	IC50 [15] [µM]	Compound	IC50 [4] [µM]
> 1000	790 (≈ 168 µg/mL)	> 20													O=C(O)Cc1ccc(B2C=CC=CN2)cc1	> 30
< 4	6 (≈ 2.62 µg/mL)	> 20	3.5	−4.5	>3.18	0.052	4.8	1.4							O=C(NCCS(=O)(=O)c1ccc(C(F)(F)F)cn1)c1ccc(B2C=CCCN2)cc1	> 30
< 5	13 (≈ 4.62 µg/mL)	> 20	4.6	−4.2	3.14										CN(CCc1c[nH]c2ccccc12)C(=O)c1ccc(B2C=CC=CN2)cc1	5.8
26 (≈ 12 µg/mL)	119 (≈ 54.8 µg/mL)	16	4.9	−5.0	>3.18				> 14	1					CC(C)[C@@H](CN1CCN(c2cccc(O)c2)[C@@H](C)C1)NC(=O)c1ccc(B2C=CCCN2)cc1	9.1
		7.8									0.24				O=C(Cc1ccc(B2C=CC=CN2)cc1)Nc1cc(C2CC2)[nH]n1	> 30
88 (≈ 25.4 µg/mL)	130 (≈ 37.6 µg/mL)	8.6	3.2	−4.6	2.38										O=C(NCc1ccncc1)c1ccc(B2C=CC=CN2)cc1	> 30
		17	5	−4.2	3.08										COc1ccc2[nH]cc(CCNC(=O)c3ccc(B4C=CC=CN4)cc3)c2c1	7.9
46 (≈ 20.4 µg/mL)	220 (≈ 97.8 µg/mL)	11	4.1	−4.3	>3.18								0.004	0.52	COc1ccccc1N1CCN(CCCCNC(=O)c2ccc(B3C=CC=CN3)cc2)CC1	0.17
